Experimental data published in patent publication US20230067015A1, “SYSTEMS AND METHODS FOR ANTIBACTERIAL SUSCEPTIBILITY TESTING USING DYNAMIC LASER SPECKLE IMAGING” (The Penn State Research Foundation, priority 2020, published 2023).
Converted amounts (≈) assume the structure as drawn. Like-named read-outs stand apart in the source and are kept apart here.

Key:
[1] = test system: E. coli K-12; test: Broth microdilution MIC (CLSI), confirmed by time-kill kinetics; assay type: cell-based, Escherichia coli; details: E. coli K-12, gold standard overnight methods
Description: (§1) Escherichia coli (E. coli) strain K-12 was used as a model bacterial strain in all experiments with ampicillin, gentamicin, and ceftriaxone. Multi-drug resistant (MDR) E. coli strain PS00278A (porcine isolate) was tested with ampicillin and gentamicin to contrast with the susceptible model bacterial strain. Staphylococcus aureus (S. aureus) strain PS00975A (human clinical isolate) was used with ampicillin to evaluate the methods' performance on a Gram-positive microorganism. Cultures were stored as a frozen stocks at −80° C. and resuscitated every 14 days to maintain a fresh inoculum. The culture was resuscitated by streaking onto Muller Hinton Agar (MHA) and was then incubated at 37° C. 20+/−2 h. A single colony from the MHA agar was re-streaked on a fresh MHA plate and incubated at 37° C. 20+/−2 h. A single colony from the MHA sub-streak plate was inoculated into 10 mL Muller Hinton Broth (MHB) and incubated at 37° C., shaking at 210 rpm, for 20+/−2 h. The overnight culture was diluted in MHB based on the OD600 to obtain 5×10^5 CFU/mL using a BioPhotometer D30 (Eppendorf, Hauppauge, N.Y.). An OD600 of 1 was considered to be equal to 8×10^8 CFU/mL, based on an E. coli OD600-CFU/ml standard curve.
(§2) The 5×10^5 CFU/mL culture was used for broth microdilution and speckle imaging. […] The CLSI guideline M100 ED30:2020 was used to define clinical resistance based on determined MICs. […] MIC was determined by visually inspecting wells for turbidity resulting from culture growth.
Broth macrodilution was used to determine the time-kill kinetics of all strains, Culture in concentration of 5×10^5 CFU/mL was first grown for 1 hour at 37° C. in a shaking condition (210 rpm) and was then exposed to antibiotic concentrations of 0×MIC (control), 1×MIC, and 2×MIC that were previously determined via broth microdilution. Viable cells were quantified at times 0, 1, 2, 3, 5, 8, 16, and 24 hours by spiral plating (easySpiral, Interscience) 10-fold dilutions onto MHB agar. Inoculated plates were incubated at 37° C. for 16-20 hours and counted to determine the CFU/mL at each time point. […]

[2] = test system: MDR E. coli PS00278A; details: CLSI guideline M100 ED30:2020, tested on MDR E. coli; cited from earlier work
[3] = test system: MDR E. coli PS00278A; test: Broth microdilution MIC (CLSI); assay type: cell-based, Escherichia coli
Description: as §1, with “An OD600 of 1 was considered to be equal to 8×10^8 CFU/mL, based on an E. coli OD600-CFU/ml standard curve.” left out
as §2

[4] = test system: E. coli K-12; test: Average intensity of raw dynamic laser speckle images; assay type: cell-based; details: Escherichia coli, K12; E. coli K-12, simple intensity measurement (false positive vs overnight MIC); read-out: MIC determined from speckle intensity data
Description: A helium-neon laser (wavelength: 632.8 nm, power: 0.8 mW, HNLS008L, Thorlabs Inc., USA) was used as an illumination source. The laser beam was slightly expanded by using a concave lens (focal length=−25.0 mm) before illuminating a cuvette (Fisherbrand, CAS#14-955-129) containing 3 mL of bacterial suspension. The resultant speckle pattern was captured by a CMOS camera (Zyla, ANDOR), interfaced to a computer. Note that other methods, such as an inverse telescope beam expander, can also be used to increase the incident laser beam size. Our choice of a diverging lens is due to its simplicity and compactness as well as the fact that an explicit physical model is not needed for the machine learning based analysis, which relaxes the requirement of a plane-wave incident beam as commonly used in dynamic light scattering. […]
The OD data and the average intensity values obtained from raw speckle patterns (examples shown in FIG. 2) are shown in FIG. 3A-B and FIG. 3C-D for ampicillin and gentamicin, respectively. […] While the OD values for different antibiotic concentrations are below the detection limit of the OD reading even after 120 min, the average speckle intensity values are distinguishable in 90 min. […]

[5] = test system: E. coli K-12; test: DyRAST: ANN pixel-level prediction on DLSI data with voting; assay type: cell-based, Escherichia coli; details: 2×MIC
Description: For DLSI-based AST, the culture grown as outlined above was adjusted to 5×10^5 CFU/mL and was further incubated at 37° C., 210 rpm for 1 h to reach the logarithmic growth phase before an antibiotic was added to the culture in concentrations equal to 0×MIC (control), 0.5×MIC, 1×MIC, and 2×MIC. Three mL of each culture were collected at each time point, ti (i=0, 1, . . . , 4) at 0, 30 min, 60 min, 90 min, and 120 min, respectively, and transferred into the cuvette used for DLSI in the imaging system described above. At each ti, a dynamic speckle patterns series (16 bits, 1000×2000 pixels, 50 frames per second) was collected. The exposure time for each frame was 1 msec (millisecond) and the full capture period was 10 sec at each time point, ti. All experiments were conducted in independent triplicates.
The raw images (1000×2000) were first resized (100×200) using the nearest neighbor method to reduce the computational cost. The camera has a pixel size of 6.5 μm, corresponding to a 6.5 mm×13 mm detection area. Fourier Transform (FT) was performed along the time axis of the measured data cube. […]
The experimental replicates are pooled, processed together, and then divided randomly into training, validation, and test groups. […] Binary classification for the “Inhibited” and “Non-Inhibited” bacteria groups was determined with the input from frequency domain for each pixel. […]

[6] = Escherichia coli, K12, read-out: MIC

For gentamicin, the MIC [1] is listed as 2 µg/mL, the “intermediate breakpoint concentration (clinical resistance diagnosis breakpoint)” value [2] is listed as 8 µg/mL and the MIC [3] is listed as 128 µg/mL.
In the case of `CO/N=C(\C(=O)N[C@@H]1C(=O)N2C(C(=O)O)=C(CSc3nc(=O)c(=O)[nH]n3C)CS[C@H]12)c1csc(N)n1` [ceftriaxone], the MIC [1, 6] is reported as 0.0625 µg/mL (≈ 0.113 µM).
For `CC1(C)S[C@@H]2[C@H](NC(=O)[C@H](N)c3ccccc3)C(=O)N2[C@H]1C(=O)O` [ampicillin, Ampicillin], the MIC [1, 6] is listed as 4 µg/mL (≈ 11.4 µM), the MIC [4] is listed as 2 µg/mL (≈ 5.72 µM) and the “intermediate breakpoint concentration (clinical resistance diagnosis breakpoint)” value [2] is listed as 16 µg/mL. The “predicted percentage of classification as "Inhibited"” value ([5]; 30 min) was about 50%, the “predicted percentage of classification as "Inhibited" (votes)” value ([5]; 60 min) was “more than 80%” and the MIC ([3]; Escherichia coli, read-out: MIC) was 2000 µg/mL (≈ 5720 µM).
